*1 amine or outer side, *2 acyl side, *3 side chain or, on linkers, in order; H or OH if unused. Where a SMILES comes first, the peptide text is derived from it. [ ]: non-standard residue; d: D form. Glyψ(E-CHCH)Leu = CC(C)C[C@H](/C=C/CN[*:1])C(=O)[*:2]; X3 = O=C(CC[C@@H](O)[C@H](Cc1ccccc1)N[*:1])[*:2]; X4 = O=C(CCC(=O)[*:2])[C@H](Cc1ccccc1)N[*:1]; X8 = O=C(CSC[C@H](Cc1ccccc1)N[*:1])[*:2]; Arg(Me) = CNC(=N)NCCC[C@H](N)C(=O)O; Dap(CONH2) = NC(=O)NC[C@H](N)C(=O)O; Ala(cPr) = N[C@@H](CC1CC1)C(=O)O; Hyp = O=C(O)[C@@H]1C[C@@H](O)CN1; Cha = N[C@@H](CC1CCCCC1)C(=O)O; Cba = N[C@@H](CC1CCC1)C(=O)O
Tested on: metastin receptors
Assay: Measurement of agonist activity by assaying changes in intracellular calcium ion level (FLIPR, Fluo-4 NW)
Type: cell-based, human
Details: specific activity of the EC50 of a test compound based on the EC50 of Metastin (45-54), metastin receptor expression CHO cells
Experimental: 1) Preparation of Human Metastin and Rat Metastin Stable Expression Cell Lines
Human metastin and rat metastin stable expression cell lines were obtained by transfecting the expression plasmid for animal cells into CHO/dhfr^− cells using CellPhect Transfection Kit (manufactured by GE Healthcare). First, 240 μL of Buffer A (attached to CellPhect Transfection Kit) was added to 9.6 μg of plasmid DNA dissolved in 240 μL of distilled water followed by stirring. After the mixture was settled for 10 minutes, 480 μL of Buffer B (attached to CellPhect Transfection Kit) was added to the mixture, which was vigorously stirred to form liposomes containing the DNA. Then, 4×10^5 CHO/dhfr^− cells (obtained from ATCC) were inoculated on a 60 mm Petri dish. After culturing the cells in Ham's F-12 medium (manufactured by Nissui Seiyaku Co., Ltd.) supplemented with 10% fetal bovine serum (manufactured by BIO […], Inc.) at 37° C. for 2 days in 5% carbon dioxide gas, […] of the liposomes were dropwise added to the cells on the Petri dish. After culturing the cells in a CO2 incubator (5% CO2, 37° C.) for 6 hours, the cells were washed twice with serum-free Ham's F-12 medium and 3 mL of 15% glycerol was added to the cells on the Petri dish followed by treatment for 2 minutes. The cells were again washed twice with serum-free Ham's F-12 medium followed by incubation in Ham's F-12 medium supplemented with 10% fetal bovine serum in a CO2 incubator (5% CO2, 37° C.) for 15 hours. The cells were dispersed by trypsin treatment to recover from the Petri dish. The recovered cells were inoculated on a 6-well plate in 1.25×10^4 cells each/well and incubation was initiated in a CO2 incubator (5% CO2, 37° C.) in Dulbecco's modified Eagle medium (DMEM, manufactured by Nissui Seiyaku) containing 10% dialyzed fetal bovine serum (manufactured by JRH BIOSCIENCES, Inc.). The plasmid-transfected CHO transformants grew in the medium but the non-transfected cells gradually died, accordingly the medium was exchanged on Days 1 and 2 after the initiation of incubation to remove the dead cells. Approximately 20 colonies of the CHO transformants that kept growing on Days 8 to 10 after the incubation were isolated. From the cells in these colonies, cells showing high reactivity with the ligand peptide metastin (hereinafter merely referred to as h175 KB19 and h175 KB29 strains) were selected to provide for the following experiment.
Human metastin expression CHO cell line (h175 KB19 strain is described in a separate section) and rat metastin expression CHO cell line (h175 KB29 strain is described in a separate section) were seeded in a 96-well plate (type 3904, manufactured by Corning) at 3×10^4 cells/well, followed by incubation in a CO2 incubator (5% CO2, 37° C.) for 24 hours. For the medium, MEMα medium (nucleic acid-free, manufactured by Nikken Bio Medical Laboratory) supplemented with dialyzed 10% fetal bovine serum (manufactured by Thermo, MultiSer) was used.
3) Loading with Fluo-4 NW in Cells
As an assay buffer, 1× Hanks' balanced salt solution (HBSS, manufactured by GIBCO) supplemented with 0.1% BSA, 20 mM HEPES (pH 7.4, manufactured by GIBCO) and 1 mM Probenecid (manufactured by Molecular Probes) was prepared. The medium in the wells of the cell-seeded plate was removed and 100 μL each of the assay buffer (kept warm at 37° C.) was added to each well. After 10 mL of the assay buffer (the volume for assaying two plates) was charged in one Fluo-4NW dye mix (Component A, Fluo-4 NW calcium assay kit (starter pack), manufactured by Molecular Probes) bottle, the mixture was gently stirred to prepare the Fluo-4 NW loading solution. This loading solution was charged in each well by 50 μl each and reacted in a CO2 incubator (5% CO2, 37° C.) for 30 minutes for loading with Fluo-4 NW into the cells. Subsequently, the cells were settled at room temperature (25° C.) for 15 minutes and then used for assay.
4) Measurement of Agonist Activity […]

Compound	Specific Activity
CNC(=N)NCCC[C@H](NC(=O)[C@@H](/C=C/CNC(=O)[C@H](CC1CCCCC1)NC(=O)[C@@H](NC(=O)[C@H](CCC(N)=O)NC(=O)[C@@H]1C[C@@H](O)CN1C(=O)[C@@H](Cc1ccc(O)cc1)NC(C)=O)[C@@H](C)O)CC(C)C)C(=O)N[C@@H](Cc1c[nH]c2ccccc12)C(N)=O [Compound No. 913, des(1)-Ac-[D-Tyr2,Hyp3,Gln4,Thr5,Cha6,Gly7Ψ((E)CH═CH)Leu8,Arg(Me)9,Trp10]MS10] (Ac-[dY][Hyp]QT[Cha][Glyψ(E-CHCH)Leu][Arg(Me)]W-NH2)	1.4
CNC(=N)NCCC[C@H](NC(=O)[C@H](COC)NC(=O)CNC(=O)[C@H](Cc1ccccc1)NC(=O)[C@@H](NC(=O)[C@H](CC(N)=O)NC(=O)[C@@H]1C[C@@H](O)CN1C(=O)[C@@H](Cc1ccc(O)cc1)NC(C)=O)[C@@H](C)O)C(=O)N[C@@H](Cc1c[nH]c2ccccc12)C(N)=O [Compound No. 917, des(1)-Ac-[D-Tyr2,Hyp3,Thr5,Ser(Me)8,Arg(Me)9,Trp10]MS10] (Ac-[dY][Hyp]NTFGS(Me)[Arg(Me)]W-NH2)	0.8
CC(=O)N[C@H](Cc1ccc(O)cc1)C(=O)N1C[C@H](O)C[C@H]1C(=O)N[C@@H](CC(N)=O)C(=O)N[C@H](C(=O)N[C@@H](CC1CCCCC1)C(=O)NCC(=O)N[C@@H](CC1CC1)C(=O)N[C@@H](CCCNC(=N)N)C(=O)N[C@@H](Cc1c[nH]c2ccccc12)C(N)=O)[C@@H](C)O [Compound No. 940, des(1)-Ac-[D-Tyr2,Hyp3,Thr5,Cha6,Ala(cPr)8,Trp10]MS10] (Ac-[dY][Hyp]NT[Cha]G[Ala(cPr)]RW-NH2)	0.5
CNC(=N)NCCC[C@H](NC(=O)[C@H](CC(C)C)NC(=O)CCC(=O)[C@H](Cc1ccccc1)NC(=O)[C@@H](NC(=O)[C@H](CC(N)=O)NC(=O)[C@@H]1C[C@@H](O)CN1C(=O)[C@@H](Cc1ccc(O)cc1)NC(C)=O)[C@@H](C)O)C(=O)N[C@@H](Cc1c[nH]c2ccccc12)C(N)=O [Compound No. 851, des(1)-Ac-[D-Tyr2,Hyp3,Thr5,Phe6Ψ(COCH2)Gly7,Arg(Me)9,Trp10]MS10] (Ac-[dY][Hyp]NT[X4]L[Arg(Me)]W-NH2)	1.1
CC(=O)N[C@H](Cc1ccc(O)cc1)C(=O)N1C[C@H](O)C[C@H]1C(=O)N[C@@H](CC(N)=O)C(=O)N[C@H](C(=O)N[C@@H](CC1CCCCC1)C(=O)NC/C=C/[C@@H](CC(C)C)C(=O)N[C@@H](CCCNC(=N)N)C(=O)N[C@@H](Cc1c[nH]c2ccccc12)C(N)=O)[C@@H](C)O [Compound No. 926, des(1)-Ac-[D-Tyr2,Hyp3,Thr5,Cha6,Gly7Ψ((E)CH═CH)Leu8,Trp10]MS10] (Ac-[dY][Hyp]NT[Cha][Glyψ(E-CHCH)Leu]RW-NH2)	0.6
CNC(=N)NCCC[C@H](NC(=O)[C@@H](/C=C/CNC(=O)[C@H](CC1CCCCC1)NC(=O)[C@@H](NC(=O)[C@H](CNC(N)=O)NC(=O)[C@@H]1C[C@@H](O)CN1C(=O)[C@@H](Cc1ccc(O)cc1)NC(C)=O)[C@@H](C)O)CC(C)C)C(=O)N[C@@H](Cc1c[nH]c2ccccc12)C(N)=O [Compound No. 903, des(1)-Ac-[D-Tyr2,Hyp3,Alb4,Thr5,Cha6,Gly7Ψ((E)CH═CH)Leu8,Arg(Me)9,Trp10]MS10] (Ac-[dY][Hyp][Dap(CONH2)]T[Cha][Glyψ(E-CHCH)Leu][Arg(Me)]W-NH2)	0.4
CNC(=N)NCCC[C@H](NC(=O)[C@H](CC1CC1)NC(=O)CNC(=O)[C@H](CC1CCCCC1)NC(=O)[C@H](CO)NC(=O)[C@H](CNC(N)=O)NC(=O)[C@@H]1C[C@@H](O)CN1C(=O)[C@@H](Cc1ccc(O)cc1)NC(C)=O)C(=O)N[C@@H](Cc1c[nH]c2ccccc12)C(N)=O [Compound No. 948, des(1)-Ac-[D-Tyr2,Hyp3,Alb4,Ser5,Cha6,Ala(cPr)8,Arg(Me)9,Trp10]MS10] (Ac-[dY][Hyp][Dap(CONH2)]S[Cha]G[Ala(cPr)][Arg(Me)]W-NH2)	0.5
CNC(=N)NCCC[C@H](NC(=O)[C@H](CC(C)C)NC(=O)CC[C@@H](O)[C@H](Cc1ccccc1)NC(=O)[C@@H](NC(=O)[C@H](CC(N)=O)NC(=O)[C@@H]1C[C@@H](O)CN1C(=O)[C@@H](Cc1ccc(O)cc1)NC(C)=O)[C@@H](C)O)C(=O)N[C@@H](Cc1c[nH]c2ccccc12)C(N)=O [Compound No. 867, des(1)-Ac-[D-Tyr2,Hyp3,Thr5,Phe6Ψ((R)CHOH—CH2)Gly7,Arg(Me)9,Trp10]MS10] (Ac-[dY][Hyp]NT[X3]L[Arg(Me)]W-NH2)	0.8
CNC(=N)NCCC[C@H](NC(=O)[C@@H](/C=C/CNC(=O)[C@H](CC1CCCCC1)NC(=O)[C@@H](NC(=O)[C@H](CC(N)=O)NC(=O)[C@@H]1C[C@@H](O)CN1C(=O)[C@@H](Cc1ccc(O)cc1)NC(C)=O)[C@@H](C)O)CC(C)C)C(=O)N[C@@H](Cc1c[nH]c2ccccc12)C(N)=O [Compound No. 902, des(1)-Ac-[D-Tyr2,Hyp3,Thr5,Cha6,Gly7Ψ((E)CH═CH)Leu8,Arg(Me)9,Trp10]MS10] (Ac-[dY][Hyp]NT[Cha][Glyψ(E-CHCH)Leu][Arg(Me)]W-NH2)	0.6
CNC(=N)NCCC[C@H](NC(=O)[C@H](CC1CC1)NC(=O)CNC(=O)[C@H](Cc1ccccc1)NC(=O)[C@@H](NC(=O)[C@H](CC(N)=O)NC(=O)[C@@H]1C[C@@H](O)CN1C(=O)[C@@H](Cc1ccc(O)cc1)NC(C)=O)[C@@H](C)O)C(=O)N[C@@H](Cc1c[nH]c2ccccc12)C(N)=O [Compound No. 916, des(1)-Ac-[D-Tyr2,Hyp3,Thr5,Ala(cPr)8,Arg(Me)9,Trp10]MS10] (Ac-[dY][Hyp]NTFG[Ala(cPr)][Arg(Me)]W-NH2)	0.8
CNC(=N)NCCC[C@H](NC(=O)[C@H](CC(C)C)NC(=O)CSC[C@H](Cc1ccccc1)NC(=O)[C@@H](NC(=O)[C@H](CC(N)=O)NC(=O)[C@@H]1C[C@@H](O)CN1C(=O)[C@@H](Cc1ccc(O)cc1)NC(C)=O)[C@@H](C)O)C(=O)N[C@@H](Cc1c[nH]c2ccccc12)C(N)=O [Compound No. 944, des(1)-Ac-[D-Tyr2,Hyp3,Thr5,Phe6Ψ(CH2S)Gly7,Arg(Me)9,Trp10]MS10] (Ac-[dY][Hyp]NT[X8]L[Arg(Me)]W-NH2)	0.7
des(1)-Ac-[D-Tyr2,Hyp3,Alb4,Ala5,Cha6,Ala(cPr)8,Arg(Me)9,Trp10]MS10 (Ac-[dY][Hyp][Dap(CONH2)]A[Cha]G[Ala(cPr)][Arg(Me)]W-NH2; SMILES CNC(=N)NCCC[C@H](NC(=O)[C@H](CC1CC1)NC(=O)CNC(=O)[C@H](CC1CCCCC1)NC(=O)[C@H](C)NC(=O)[C@H](CNC(N)=O)NC(=O)[C@@H]1C[C@@H](O)CN1C(=O)[C@@H](Cc1ccc(O)cc1)NC(C)=O)C(=O)N[C@@H](Cc1c[nH]c2ccccc12)C(N)=O) [Compound No. 947]	0.5
CNC(=N)NCCC[C@H](NC(=O)[C@H](CC1CCC1)NC(=O)CNC(=O)[C@H](CC1CCCCC1)NC(=O)[C@@H](NC(=O)[C@H](CC(N)=O)NC(=O)[C@@H]1C[C@@H](O)CN1C(=O)[C@@H](Cc1ccc(O)cc1)NC(C)=O)[C@@H](C)O)C(=O)N[C@@H](Cc1c[nH]c2ccccc12)C(N)=O [Compound No. 946, des(1)-Ac-[D-Tyr2,Hyp3,Thr5,Cha6,Ala(cBu)8,Arg(Me)9,Trp10]MS10] (Ac-[dY][Hyp]NT[Cha]G[Cba][Arg(Me)]W-NH2)	0.5

Source: patent publication US7786083B2, “Metastin derivatives and use thereof” (Takeda Pharmaceutical Company Limited, priority 2006, dated 2010)
